From PMC6095626, “Screening of the Pathogen Box for inhibitors with dual efficacy against Giardia lamblia and Cryptosporidium parvum” (PLoS Neglected Tropical Diseases, 2018)
Where two headings read alike, the source gives them in different places. Marks after values point to notes of the source that are not given here.

Tests used:
[1] = tested on: G. lamblia trophozoites (luciferase expressing, WBC6); assay: microbe, parasite or virus in culture; format: cell-based, Giardia lamblia; settings: for EC50: read-out: G. lamblia EC50; for inhibition at 16 µM: read-out: Giardia (16 uM) Mean % inhibition; for Giardia (16 uM) Mean % inhibition: initial Pathogen Box screen, single concentration 16 µM, inhibition compared to DMSO wells
How it was run: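 Luciferase-expressing WBC6 trophozoites plated at 250,000 cells/mL, compounds added 1:1, incubated anaerobically (GasPak bags) at 37 °C for 24 h; viability read by bioluminescence, with duplicate plates counted on a MOXI Z cell counter. Metronidazole control serially diluted 1:2 from 40 μM.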

[2] = tested on: C. parvum (UGA1 Nluc expressing strain in HCT-8 cells); assay: microbe, parasite or virus in culture; format: cell-based, Cryptosporidium parvum; settings: for Crypto (10 uM) Mean % inhibition: initial Pathogen Box screen, single concentration 10 µM, inhibition compared to DMSO wells; for C. parvum cell growth inhibition in the initial screen: 10 μM
How it was run: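 HCT-8 monolayers grown 48 h to 90–100% confluence, treated with compound at 10 μM or serial dilutions, then infected with bleach-treated UGA1 Nluc C. parvum oocysts.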

[3] = Cytotoxicity against HepG2 cells, AlamarBlue viability assay, 48 hours; format: cell-based, human; settings: human, HepG2 cells, read-out: HepG2 CC50 (this study)
Text: (§1) Mammalian cell cytotoxicity assay data performed on HepG2 (human hepatocellular carcinoma) cells and described as CC20 or CC50 values are provided in supporting documentation that accompanied the Pathogen Box for approximately three quarters of the 400 compounds. However, no details of the assay conditions or parameters were provided. In this study, selected compounds were further tested for cytotoxicity against HepG2 cells as previously described. Briefly, cells were exposed to two-fold serial dilutions of compounds for 48 hours and cytotoxicity was assessed using the AlamarBlue® viability assay (Thermo Fisher Scientific, Waltham, MA). Each dilution was assayed in quadruplicate and concentrations causing 50% growth inhibition (CC50) were calculated by non-linear regression using GraphPad Prism 7 software (GraphPad Software, San Diego, CA).

[4] = tested on: HepG2 cells; settings: cited from earlier work; for HepG2 CC20 (literature values): CC20 (footnote ^); for CC50: read-out: HepG2 CC50 (literature values)
[5] = tested on: G. lamblia; settings: read-out: G. lamblia EC50 (literature), cited from earlier work
[6] = tested on: HepG2 cells; assay: Cytotoxicity against HepG2 cells, AlamarBlue viability assay, 48 hours; format: cell-based, human; settings: read-out: HepG2 CC50 (this study)
Text: as §1

[7] = tested on: C. parvum; settings: cited from earlier work
[8] = tested on: G. lamblia trophozoites; assay: G. lamblia growth inhibition counted with MOXI Z Mini Automated Cell Counter; format: cell-based; settings: Giardia duodenalis, 24 h, read-out: G. lamblia EC50 by MOXI coulter counter
Description: Preliminary effective concentration that causes 50% growth inhibition (EC50) assays were performed on the luciferase expressing and wild-type (control) G. lamblia cells to establish a correlation between manually counted cells and the bioluminescent signal read out. Trophozoites were harvested by chilling cultures on ice for 30 minutes and plated by adding 150 μL per well at a concentration of 250,000 cells/mL. Metronidazole (Sigma, St. Louis, MO) was used as a control and was serially diluted 1:2 from 40 μM to 0.04 μM and 150 μL was added to the 150 μL of the G. lamblia trophozoites. Plates were covered in plastic low-evaporation lids, sealed in individual anaerobic BD GasPak Bio-Bags (Becton Dickinson, San Jose, CA) and incubated at 37 °C for 24 hours. Plates were then iced for 30 minutes and 250 μL of resuspended cells were transferred to a solid white 96-well plate and 50 μL of 10 mg/mL D-luciferin was added to a final reaction concentration of 1.67 mg/mL. Plates were incubated on a plate shaker at 37 °C for 30 minutes and read on an EnVision Plate Reader. A duplicate plate was concurrently set up and assayed using a MOXI Z Mini Automated Cell Counter Kit (Orflo, Ketchum, ID). Results obtained from the bioluminescence assay and the MOXI counter data were compared to evaluate their correlation to each another. […]

[9] = Cryptosporidium parvum, HCT-8, read-out: Crypto (10 uM) Mean % inhibition
[10] = ref Pathogen_Box_Activity_Biological_Data_ Structure & Smiles (https://www.pathogenbox.org/about-pathogen-box/composition)
[11] = Cryptosporidium parvum, HCT-8, 48 h, read-out: C. parvum EC50, Nluc C. parvum in HCT-8 cells, 48 hours
[12] = luciferase expressing G. lamblia trophozoites, 24 hours, D-luciferin bioluminescence read-out
[13] = Nluc C. parvum in HCT-8 cells, 48 hours, read-out: C. parvum EC50
[14] = IOWA strain (48h), read-out: C. parvum EC50 (literature)

## CC1CS(=O)(=O)CCN1/N=C/c1ccc([N+](=O)[O-])o1 (centres unmarked) [MMV001499, Nifurtimox, reference compound]
[1]; Giardia duodenalis, 24 h
  EC50: 0.64 ± 0.12 µM
[1]; Giardia duodenalis
  inhibition at 16 µM: 97%
[2]; [9]
  inhibition at 10 µM: < 0%
[3]
  CC50 at 48 h: > 40 µM
[4]; [10]
  HepG2 CC20 (literature values): >80 ^* ^^ μM
[5]; reference strain WB (48h)
  EC50: 0.37 µM

## Oc1c(I)cc(I)c2cccnc12 [MMV002817, Iodoquinol, reference compound]
[1]; Giardia duodenalis, 24 h
  EC50: 2.52 ± 0.45 µM
[1]; Giardia duodenalis
  inhibition at 16 µM: 82%
[2]; [11]
  EC50: 0.48 ± 0.2 µM
[2]; Cryptosporidium parvum, HCT-8, 48 h, read-out: C. parvum cell growth inhibition in the initial screen
  inhibition at 10 µM: ≥ 95%
[2]; [9]
  inhibition at 10 µM: 95%
[3]
  CC50 at 48 h: ~40 µM
[4]; [10]
  HepG2 CC20 (literature values): 2.50 ^* ^^ μM

## OCCc1ccc(Nc2nccc(-c3nnc4ccccn34)n2)cc1 [MMV028694]
[1]
  Giardia (16 uM) Mean % inhibition: 99%
[1]; [12]
  EC50: 3.88 ± 1.27 µM
[2]; [13]
  EC50: 1.56 ± 0.5 µM
[2]
  Crypto (10 uM) Mean % inhibition: 85%
[6]
  CC50: 15.9 µM
[4]; [10]
  CC50: 8.1 µM

## CC(C)(C)c1cnc(NC(=O)c2ccccc2O)s1 [MMV495543]
[1]
  Giardia (16 uM) Mean % inhibition: 97%
[1]; [12]
  EC50: 2.77 ± 0.21 µM
[2]
  Crypto (10 uM) Mean % inhibition: 51%
[6]
  CC50: > 40 µM
[4]; [10]
  CC50: 47.6 µM

## CC(C)C(Oc1cccc2ccccc12)C(=O)O (centres unmarked) [MMV676191]
[1]
  Giardia (16 uM) Mean % inhibition: 9%
[2]; 48 hours
  C. parvum cell growth inhibition in the initial screen: 36%
[7]; ref MMV Pathogen_Box_Activity_Biological_Data_Smiles (https://www.pathogenbox.org/about-pathogen-box/composition), read-out: C. parvum EC50 reported in Pathogen Box datasheet
  EC50: > 10 µM

## O=C(Nc1cccnc1)c1c(O)c2cccc3c2n(c1=O)CC3 [MMV676395]
[1]
  Giardia (16 uM) Mean % inhibition: 98%
[1]; [12]
  EC50: 1.57 ± 0.2 µM
[2]; Nluc C. parvum in HCT-8 cells, 48 hours
  C. parvum EC50: not potent
[2]
  Crypto (10 uM) Mean % inhibition: 85%
[6]
  CC50: > 40 µM
[4]; [10]
  CC50: > 100 µM

## O=C(Nc1nnc(-c2ccc(Cl)s2)o1)c1ccc(Cl)s1 [MMV676501]
[1]
  Giardia (16 uM) Mean % inhibition: 78%
[1]; [12]
  EC50: 1.4 ± 0.2 µM
[2]; [13]
  EC50: 4.96 ± 1.8 µM
[2]
  Crypto (10 uM) Mean % inhibition: 93%
[6]
  CC50: > 40 µM
[4]; [10]
  CC50: 50.1 µM

## CC(C)/N=c1\cc2n(-c3ccc(Cl)cc3)c3ccccc3nc-2cc1Nc1ccc(Cl)cc1 [MMV687800, Clofazimine, reference compound]
[1]; Giardia duodenalis, 24 h
  EC50: 1.79 ± 0.23 µM
[1]; Giardia duodenalis
  inhibition at 16 µM: 98%
[2]; [11]
  EC50: 3.3 µM
[2]; [9]
  inhibition at 10 µM: 82%
[2]; read-out: C. parvum EC50, Nluc C. parvum in HCT-8 cells, 48 hours
  EC50: 3.33 ± 1.2 µM
[3]
  CC50 at 48 h: 26.4 µM
[4]
  CC50: > 20 µM
[7]; [14]
  EC50: 0.015 µM

## CN1CCN(CCCOc2ncc(Nc3ncc(-c4ccc(C(F)(F)F)c(F)c4)nc3C(N)=O)cn2)CC1 [MMV687812]
[1]
  Giardia (16 uM) Mean % inhibition: 98%
[1]; [12]
  EC50: 1.25 ± 0.12 µM
[2]
  Crypto (10 uM) Mean % inhibition: 66%
[6]
  CC50: 5.33 µM
[4]; [10]
  CC50: 3.9 µM

## C[C@]1(COc2ccc(N3CCC(Oc4ccc(OC(F)(F)F)cc4)CC3)cc2)Cn2cc([N+](=O)[O-])nc2O1 [MMV688262, Delamanid, reference compound]
[1]; Giardia duodenalis, 24 h
  EC50: 0.55 ± 0.04 µM
[1]; Giardia duodenalis
  inhibition at 16 µM: 97%
[2]; [9]
  inhibition at 10 µM: < 0%
[3]
  CC50 at 48 h: > 40 µM
[4]; [10]
  CC50: 72.5 µM

## O=[N+]([O-])c1cn2c(n1)OC[C@@H](OCc1ccc(OC(F)(F)F)cc1)C2 [MMV688755]
[1]
  Giardia (16 uM) Mean % inhibition: 99%
[1]; [12]
  EC50: 1.57 ± 0.38 µM
[2]
  Crypto (10 uM) Mean % inhibition: 17%
[6]
  CC50: > 40 µM
[4]; [10]
  CC50: > 50 µM

## COc1ccc2nccc(NC(=O)C3CCN(CCc4ccc(Cl)cc4)CC3)c2n1 [MMV688844]
[1]
  Giardia (16 uM) Mean % inhibition: 98%
[1]; [12]
  EC50: 2.3 ± 0.43 µM
[2]
  Crypto (10 uM) Mean % inhibition: X* (Mean or standard deviation are negative but not significantly different from the control to be a growth promoter)
[6]
  CC50: > 40 µM
[4]; [10]
  CC50: > 50 µM

## CCOc1ccc2cc(-c3nn(CC4CCN(C)CC4)c4ncnc(N)c34)ccc2c1 [MMV688854, reference compound]
[1]
  Giardia (16 uM) Mean % inhibition: 9%
[2]; 48 hours
  C. parvum cell growth inhibition in the initial screen: 79%
[7]; same strain of Nluc C. parvum, read-out: C. parvum EC50 (previously shown)
  EC50: 2.7 µM

## CC(=O)OCC1OC([S-])C(OC(C)=O)C(OC(C)=O)C1OC(C)=O.CCP(CC)CC.[Au+] (centres unmarked) [MMV688978, Auranofin, reference compound]
[1]
  Giardia (16 uM) Mean % inhibition: 98%
[1]; [12]
  EC50: 3.74 ± 0.46 µM
[2]; [13]
  EC50: 3.34 ± 2.7 µM
[2]
  Crypto (10 uM) Mean % inhibition: 93%
[6]
  CC50: 0.5 µM
[4]
  CC50: 4.5 µM
[5]; WB strain (48h)
  EC50: 4 to 6 µM
[7]; [14]
  EC50: 2 µM

## CC(=O)Oc1ccccc1C(=O)Nc1ncc([N+](=O)[O-])s1 [MMV688991, Nitazoxanide, reference compound]
[1]; Giardia duodenalis, 24 h
  EC50: 0.8 ± 0.1 µM
[1]; Giardia duodenalis
  inhibition at 16 µM: 97%
[2]; [11]
  EC50: 3.1 ± 0.4 µM
[2]; [9]
  inhibition at 10 µM: 92%
[3]
  CC50 at 48 h: 10.7 µM
[4]; [10]
  HepG2 CC20 (literature values): 6.35 ^* ^^ μM
[5]; WB strain (48h)
  EC50: 0.8 µM
[5]; reference strain WB (48h)
  EC50: 0.61 µM

## CCCSc1ccc2nc(NC(=O)OC)[nH]c2c1 [albendazole, Albendazole, reference compound]
[1]; Giardia duodenalis, 24 h
  EC50: 0.41 µM
[5]; reference strain WB (48h)
  EC50: 0.23 µM

## Cc1ncc([N+](=O)[O-])n1CCO [metronidazole, Metronidazole]
[1]; Giardia duodenalis, 24 h
  EC50: 2.24 µM
[8]
  EC50: 1.06 µM
[5]
  EC50: ~5 µM
[5]; reference strain WB (48h)
  EC50: 8.65 µM
